Reference: ChEMBL document CHEMBL3046031, “Comparison of Acaricidal, Insecticidal, and Nerve Activities of Halfenprox (MTI-732) and Related Compounds” (1996)
The source made the active and inactive calls. No cut-off for these calls is given here.

How the values were obtained:
Type in all cases: functional
Nerve cord = assay: Induction of repetitive firing in excised nerve cord of Periplaneta americana (American cockroach) measured up to 32 min
Spodoptera litura [1] = assay: Insecticidal activity against third-instar larvae of Spodoptera litura infested compound-treated cabbage leaf assessed as mortality after 48 hr
Tetranychus urticae [2] = assay: Acaricidal activity against Tetranychus urticae (two-spotted spider mite) infested kidney bean leaf disk assessed as mortality measured after 48 hr
Spodoptera litura [3] = assay: Insecticidal activity against third-instar larvae of Spodoptera litura infested compound-treated cabbage leaf assessed as mortality after 48 hr in presence of piperonyl butoxide
Procambarus clarkii = assay: Induction of depolarization in Procambarus clarkii (crayfish) giant axons assessed as transient inward sodium currents at -100 to -20 mV holding potential at 2 x 10 '-5 M
Periplaneta americana = assay: Insecticidal activity against Periplaneta americana (American cockroach) assessed as paralysis/mortality compound injected into abdomen after 24 hr
Tetranychus urticae [4] = assay: Ratio of etofenprox LC50 to compound LC50 for Tetranychus urticae (two-spotted spider mite) infested kidney bean leaf disk

| Structure (SMILES) | log(1/MEC) (Nerve cord) | log(1/LC50) (Spodoptera litura [1]) | log(1/LC50) (Tetranychus urticae [2]) | log(1/MLD) (Spodoptera litura [3]) | Activity (Procambarus clarkii) | log(1/MLD) (Periplaneta americana) | RatioLC50 (Tetranychus urticae [4]) |
| --- | --- | --- | --- | --- | --- | --- | --- |
| CC(C)(COCc1cccc(Oc2ccccc2)c1)c1ccc(OC(F)(F)F)cc1 | 7.45 | 5.36 | 5.14 | 9.75 | Active | 9.64 | – |
| CC(C)(COCc1cccc(Oc2ccccc2)c1)c1ccc(OC(F)(F)Br)cc1 [halfenprox] | 6.57 | 4.83 | 5.77 | 9.77 | Active | 9.67 | 200 |
| CCOc1ccc(C(C)(C)COCc2cccc(Oc3ccccc3)c2)cc1 [ETOFENPROX] | 8 | 4.68 | 3.48 | 9.79 | Active | 9.49 | – |
| CC(C)(COCc1cccc(Oc2ccccc2)c1)c1ccc(OC(F)(F)Cl)cc1 | 6.14 | 4.96 | 5.34 | 9.75 | Active | 9.55 | – |
| CC(C)(COCc1cccc(Oc2ccccc2)c1)c1ccc(OC(F)F)cc1 | 7.73 | 4.7 | 3.75 | 9.52 | Active | 9.03 | – |
